According to patent US11407822B2, “Treatment of fibrodysplasia ossificans progressiva” (REGENERON PHARMACEUTICALS, INC., priority 2014, dated 2022):

What was measured:
[1] = system: Acvr1[R206H]COIN/+; Gt(ROSA26)SorCreERt2/+ mice; assay: Example 4: ectopic bone formation in a mouse model of FOP after tamoxifen, in vivo μCT (Activin A antibody, Acvr2a/Acvr2b antibody); settings: for protection from / inhibition of ectopic bone formation after tamoxifen treatment: mouse, in vivo
Description: ACVR1 and/or ACVR2 antagonists and variants or fragments thereof can also be screened for activity in an in vivo assay. For example, ACVR1 or ACVR2 antagonists or variants thereof can be screened for their ability to treat FOP in a mouse model of FOP (e.g., ability to decrease ectopic bone formation). Transgenic knock-in mice have been developed that carry a conditional allele encoding Acvr1[R206H]. These Acvr1^[R206H]COIN/+ mice are described in U.S. Ser. No. 14/207,320 and PCT/US2014/026582, which are incorporated by reference herein in its entirety. This allele expresses the R206H variant only after activation by Cre recombinase. This allows Cre-dependent activation of Acvr1[R206H] expression at specific tissues and at specific time by using different types of Cre driver lines. In this manner the resulting mice also bypass the perinatal lethality that has been observed with a non-regulated knock-in allele of Acvr1[R206H]. Activation of Acvr1[R206H] expression in young or in adult mice results in ectopic bone formation. […] Tamoxifen activates expression of Cre which then acts upon the Acvr1^[R206H]COIN/+ to convert it to Acvr1^[R206H]/+, thereby converting the genotype of the mice to mirror the genotype of the FOP patients that are ACVR1[R206H]. The Acvr1^[R206H] allele expresses Acvr1[R206H], and that is adequate to drive the development of FOP in the Acvr1^[R206H]/+; Gt(ROSA26)Sor^CreERt2/+ mice. This bypasses the embryonic lethality experienced with conventional Acvr1^[R206H] knock-in mice, Acvr1^tm1Emsh (http://www.informatics.jax.org/allele/key/828153). After tamoxifen treatment, the ACVR1, ACVR2A and/or ACVR2B antagonists or a control can be administered to the Acvr1^[R206H]COIN/+; Gt(ROSA26)Sor^CreERt2/+ mice and the animals monitored for ectopic bone formation. […]
26 Acvr1[R206H]COIN/+; Gt(ROSA26)SorCreERt2/+ mice were given with tamoxifen at a 40 mg/kg dose i.p. for eight days. […] Mice were monitored using in vivo μCT at baseline, 2, 3 and 4 weeks post initiation of tamoxifen administration. […]

[2] = system: Acvr1[R206H]COIN/+; Gt(ROSA26)SorCreERt2/+ mice; assay: Example 5: ectopic bone formation in a mouse model of FOP after tamoxifen, in vivo μCT, dose comparison of Activin A antibody; settings: for mice that developed ectopic bone: nine mice, after 4 weeks, μCT; for average total volume of ectopic bone: at 6.5 weeks, calculated from μCT images
Description: (§1) ACVR1 and/or ACVR2 antagonists and variants or fragments thereof can also be screened for activity in an in vivo assay. For example, ACVR1 or ACVR2 antagonists or variants thereof can be screened for their ability to treat FOP in a mouse model of FOP (e.g., ability to decrease ectopic bone formation). Transgenic knock-in mice have been developed that carry a conditional allele encoding Acvr1[R206H]. These Acvr1^[R206H]COIN/+ mice are described in U.S. Ser. No. 14/207,320 and PCT/US2014/026582, which are incorporated by reference herein in its entirety. This allele expresses the R206H variant only after activation by Cre recombinase. This allows Cre-dependent activation of Acvr1[R206H] expression at specific tissues and at specific time by using different types of Cre driver lines. In this manner the resulting mice also bypass the perinatal lethality that has been observed with a non-regulated knock-in allele of Acvr1[R206H]. Activation of Acvr1[R206H] expression in young or in adult mice results in ectopic bone formation. […] Tamoxifen activates expression of Cre which then acts upon the Acvr1^[R206H]COIN/+ to convert it to Acvr1^[R206H]/+, thereby converting the genotype of the mice to mirror the genotype of the FOP patients that are ACVR1[R206H]. The Acvr1^[R206H] allele expresses Acvr1[R206H], and that is adequate to drive the development of FOP in the Acvr1^[R206H]/+; Gt(ROSA26)Sor^CreERt2/+ mice. This bypasses the embryonic lethality experienced with conventional Acvr1^[R206H] knock-in mice, Acvr1^tm1Emsh (http://www.informatics.jax.org/allele/key/828153). After tamoxifen treatment, the ACVR1, ACVR2A and/or ACVR2B antagonists or a control can be administered to the Acvr1^[R206H]COIN/+; Gt(ROSA26)Sor^CreERt2/+ mice and the animals monitored for ectopic bone formation. See Chakkalakal S A, et al. (20120 An Acvr1 R206H knock-in mouse has fibrodysplasia ossificans progressiva. J Bone Miner Res. 27(8):1746-56. This assay is described in detail in the Examples below.
35 Acvr1[R206H]COIN/+; Gt(ROSA26)SorCreERt2/+ mice were given with tamoxifen at 40 mg/kg i.p. for eight days. Eight mice were treated with 25 mg/kg isotype control antibody (REGN1945), nine mice were treated with 25 mg/kg of Activin A antibody (H4H10446P) (REGN2477), nine mice were treated with 10 mg/kg of Activin A antibody (REGN2477) and nine mice were treated with 1 mg/kg of Activin A antibody (REGN2477) weekly for 6 weeks. Mice were monitored using in vivo μCT at baseline, 2, 3, 4 and 6.5 weeks post initiation of tamoxifen administration. The volume of ectopic bone in each mouse was calculated from μCT images. […] At 6.5 weeks the average total volume of ectopic bone in the isotype treated group was 65.4 mm3 compared to 1.87 mm^3 in the 25 mg/kg, 0.3 mm^3 in the 10 mg/kg and 7.3 mm^3 in the 1 mg/kg Activin antibody treated groups.

[3] = system: Acvr1[R206H]COIN/+; Gt(ROSA26)SorCreERt2/+ mice; assay: Example 3: ectopic bone formation in a mouse model of FOP after tamoxifen, in vivo μCT (Activin A antibody, ACVR2a-Fc)
Description: ACVR1 and/or ACVR2 antagonists and variants or fragments thereof can also be screened for activity in an in vivo assay. For example, ACVR1 or ACVR2 antagonists or variants thereof can be screened for their ability to treat FOP in a mouse model of FOP (e.g., ability to decrease ectopic bone formation). Transgenic knock-in mice have been developed that carry a conditional allele encoding Acvr1[R206H]. These Acvr1^[R206H]COIN/+ mice are described in U.S. Ser. No. 14/207,320 and PCT/US2014/026582, which are incorporated by reference herein in its entirety. This allele expresses the R206H variant only after activation by Cre recombinase. This allows Cre-dependent activation of Acvr1[R206H] expression at specific tissues and at specific time by using different types of Cre driver lines. […] After tamoxifen treatment, the ACVR1, ACVR2A and/or ACVR2B antagonists or a control can be administered to the Acvr1^[R206H]COIN/+; Gt(ROSA26)Sor^CreERt2/+ mice and the animals monitored for ectopic bone formation. […]
23 Acvr1^[R206H]COIN/+; Gt(ROSA26)^SorCreERt2/+ mice were treated with tamoxifen at 1 mg/mouse dose i.p. for eight days. […] Mice were monitored using in vivo micro computer tomography (μCT) at baseline, 2 and 3 weeks post initiation of tamoxifen administration. […]

[4] = system: Activin A mediated signaling through ACVR2A and/or ACVR2B; settings: as described for the antibody in US2015/0037339 or U.S. Pat. No. 8,309,082; cited from earlier work
[5] = target: T1, Activin A binding to ACVR2A or ACVR2B (Homo sapiens, UniProt P08476); settings: as described for the antibody in US2015/0037339 or U.S. Pat. No. 8,309,082; cited from earlier work
T1 sequence (P08476 311-426): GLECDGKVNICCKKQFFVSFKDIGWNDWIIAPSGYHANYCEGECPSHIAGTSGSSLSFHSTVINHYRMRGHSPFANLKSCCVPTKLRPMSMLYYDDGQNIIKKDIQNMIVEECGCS

[6] = system: Acvr1[R206H]COIN/+; Gt(ROSA26)SorCreERt2/+ mice; assay: Example 2: ectopic bone formation in a mouse model of FOP after tamoxifen, in vivo μCT (ACVR1 kinase inhibitor); settings: for mice showing ectopic bone formation / size of ectopic bone lesions: 3 mg/kg twice daily for 4 weeks; for mice showing ectopic bone formation: 4 weeks post initiation of tamoxifen, μCT; for size of ectopic bone lesions: versus vehicle control group
Description: as §1
16 Acvr1^[R206H]COIN/+; Gt(ROSA26)Sor^CreERt2/+ mice were given tamoxifen at 1 mg/mouse dose i.p. for eight days. Eight mice were treated with 3 mg/kg of the ACVR1 kinase inhibitor LDN-212854 (Mohedas et al. (2013) ACS Chem. Biol. 8:1291-1302) twice daily for 4 weeks. Eight mice were treated with vehicle control twice daily for 4 weeks. Mice were monitored using in vivo μCT at baseline, 2 and 4 weeks post initiation of tamoxifen administration.

Molecule	mice that developed ectopic bone ([1]; 10 mg/kg twice weekly, nine mice per group, 4 weeks post initiation of tamoxifen, μCT)	protection from / inhibition of ectopic bone formation after tamoxifen treatment ([1]; listed as Activin A)	protection from / inhibition of ectopic bone formation after tamoxifen treatment ([1]; listed as antibody against Activin A)	mice that developed ectopic bone ([2]; 1 mg/kg weekly) [mice]	average total volume of ectopic bone ([2]; 1 mg/kg weekly) [mm^3]	mice that developed ectopic bone ([2]; 10 mg/kg weekly) [mice]	average total volume of ectopic bone ([2]; 10 mg/kg weekly) [mm^3]	mice that developed ectopic bone ([2]; 25 mg/kg weekly) [mice]	average total volume of ectopic bone ([2]; 25 mg/kg weekly) [mm^3]	effectiveness of varying doses against ectopic bone formation (FIG. 5) ([2]; doses 1, 10 and 25 mg/kg versus isotype control antibody)	protection from ectopic bone formation after tamoxifen treatment ([2]; mouse, in vivo)	mice showing development of ectopic bone ([3]; 25 mg/kg twice weekly, eight mice, 3 weeks post initiation of tamoxifen, μCT)	inhibition of formation of ectopic bone nodules (FIG. 3) ([3]; compared with isotype control antibody and ACVR2A-Fc)	inhibition of Activin A signal transduction through ACVR2A and/or ACVR2B [4]	inhibition of Activin A binding to ACVR2A and/or ACVR2B [5]	mice showing ectopic bone formation [6]	mice showing ectopic bone formation ([6]; listed as LDN212854)	size of ectopic bone lesions [6]	size of ectopic bone lesions ([6]; listed as LDN212854)	protection from ectopic bone formation after tamoxifen treatment ([6]; LDN-212854 treatment)
H4H10446P: Antibody against Activin A designated H4H10446P in US2015037339; heavy and light chain variable regions present SEQ ID NOs:1 and 5	one	protected from ectopic bone formation	inhibited formation of ectopic bone nodules	2	7.3	2	0.3	2	1.87	Dosages between 1 mg/kg and 25 mg/kg were shown to be effective with 10 mg/kg being the most effective dose tested	protected from ectopic bone formation	none	inhibited formation of ectopic bone nodules most effectively	inhibits Activin A mediated signaling through ACVR2A and/or ACVR2B	does not inhibit strongly, if at all					
c1cc(-c2cnn3cc(-c4ccc(N5CCNCC5)cc4)cnc23)c2cccnc2c1 [LDN-212854]																3 out of 8	No ectopic bone nodules could be detected in mice numbered 10, 11, 14, 15 or 16	small compared to the vehicle control group	Small ectopic bone nodules have formed in mice numbered 9, 12 and 13	protected from ectopic bone formation
